One assay addresses T1, PAK3 (Homo sapiens, UniProt O75914).
T1 construct: purchased Reaction Biology Europe GmbH
Description: PanQinase kinase panel: PAK3. The class given is biochemical. The following applies: read-out: INHIBITORY EFFECT @ 1 uM: PAK3. On the procedure:
(§1) Screening procedures were performed in accordance with the company's on-line protocol [accessed on-line Mar.
(§2) For each kinase, the median value of the cpm of three wells was defined as “low control” (n=3). This value reflects unspecific binding of radioactivity to the plate in the absence of a protein kinase but in the presence of the substrate. Additionally, for each kinase the median value of the cpm of three other wells was taken as the “high control,” i.e. full activity in the absence of any inhibitor (n=3). The difference between high and low control of each enzyme was taken as 100% activity.
(§3) As part of the data evaluation the low control of each kinase was subtracted from the high control value as well as from their corresponding “compound values”. The residual activity (in %) for each compound well was calculated by using the following formula: Res. Activity (%)=100×[(signal of compound−low control)/(high control−low control)].

The target in a further assay is T2, PKN3 (Homo sapiens, UniProt Q6P5Z2).
T2 construct: purchased Reaction Biology Europe GmbH
In words: PanQinase kinase panel: PKN3. The class given is biochemical. The following applies: read-out: INHIBITORY EFFECT @ 1 uM: PKN3. On the procedure:
as §1, §2, §3

Another assay concerns the target T3, LYN (Homo sapiens, UniProt P07948).
T3 construct: purchased Reaction Biology Europe GmbH
Description: PanQinase kinase panel: LYN. Type of assay: biochemical. The conditions noted are these: read-out: INHIBITORY EFFECT @ 1 uM: LYN. On the procedure:
as §1, §2, §3

A further assay concerns the target T4, INSR (Homo sapiens, UniProt P06213).
T4 construct: purchased Reaction Biology Europe GmbH
In words: PanQinase kinase panel: INSR. The class given is biochemical. The following applies: read-out: INHIBITORY EFFECT @ 1 uM: INSR. Here is the method:
as §1, §2, §3

The target in another assay is T5, MKK6 SDTD (Homo sapiens, UniProt P52564, S207D/T211D).
T5 construct: purchased Reaction Biology Europe GmbH
T5 sequence (P52564 1-334 S207D/T211D): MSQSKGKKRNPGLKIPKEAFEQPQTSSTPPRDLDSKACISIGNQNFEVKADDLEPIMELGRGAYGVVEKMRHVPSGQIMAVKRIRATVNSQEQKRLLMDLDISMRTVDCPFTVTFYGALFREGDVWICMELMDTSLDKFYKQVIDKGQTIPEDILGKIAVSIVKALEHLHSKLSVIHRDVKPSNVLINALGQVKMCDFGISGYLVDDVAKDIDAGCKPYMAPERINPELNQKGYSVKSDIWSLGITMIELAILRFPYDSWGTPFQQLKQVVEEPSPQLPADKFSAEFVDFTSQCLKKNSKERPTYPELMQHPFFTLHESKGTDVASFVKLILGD
In words: PanQinase kinase panel: MKK6 SDTD. The conditions noted are these: read-out: INHIBITORY EFFECT @ 1 uM: MKK6 SDTD. The class given is biochemical. Here is the method:
as §1, §2, §3

The target of a further assay is T6, PDGFRbeta (Homo sapiens, UniProt P09619).
T6 construct: purchased Reaction Biology Europe GmbH
Description: PanQinase kinase panel: PDGFRbeta. Type of assay: biochemical. The conditions noted are these: read-out: INHIBITORY EFFECT @ 1 uM: PDGFRbeta. Here is the method:
as §1, §2, §3

A further assay concerns the target T7, DDR2 (Homo sapiens, UniProt Q16832).
T7 construct: purchased Reaction Biology Europe GmbH
T7 sequence (Q16832 22-855): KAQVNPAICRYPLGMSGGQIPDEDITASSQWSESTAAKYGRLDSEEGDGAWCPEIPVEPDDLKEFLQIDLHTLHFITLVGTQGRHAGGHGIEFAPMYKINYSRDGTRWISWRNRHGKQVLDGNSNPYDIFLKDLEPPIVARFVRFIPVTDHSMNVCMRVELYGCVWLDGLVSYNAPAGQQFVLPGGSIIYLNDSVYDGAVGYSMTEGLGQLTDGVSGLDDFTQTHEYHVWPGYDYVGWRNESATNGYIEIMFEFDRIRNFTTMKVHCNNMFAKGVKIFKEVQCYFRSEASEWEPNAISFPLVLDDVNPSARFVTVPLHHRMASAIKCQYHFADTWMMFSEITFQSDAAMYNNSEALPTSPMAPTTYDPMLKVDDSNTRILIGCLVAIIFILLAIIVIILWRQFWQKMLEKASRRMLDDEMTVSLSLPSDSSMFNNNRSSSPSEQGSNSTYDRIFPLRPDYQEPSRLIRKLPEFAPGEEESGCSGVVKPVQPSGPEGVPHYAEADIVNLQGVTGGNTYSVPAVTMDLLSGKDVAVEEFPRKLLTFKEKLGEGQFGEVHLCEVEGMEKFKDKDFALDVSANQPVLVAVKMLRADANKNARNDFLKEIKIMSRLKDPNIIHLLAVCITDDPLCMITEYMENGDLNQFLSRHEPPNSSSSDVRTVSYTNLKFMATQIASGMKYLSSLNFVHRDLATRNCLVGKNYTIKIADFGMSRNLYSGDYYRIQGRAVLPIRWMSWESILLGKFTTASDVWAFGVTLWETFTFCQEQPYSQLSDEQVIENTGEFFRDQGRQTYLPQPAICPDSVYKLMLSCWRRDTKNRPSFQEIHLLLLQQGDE
Description: PanQinase kinase panel: DDR2. The class given is biochemical. Here is the method: as §1, §2, §3

Another assay addresses T8, CDK13/CycK (Homo sapiens, UniProt Q14004).
T8 construct: purchased Reaction Biology Europe GmbH
In words: PanQinase kinase panel: CDK13/CycK. Type of assay: biochemical. On the procedure:
Screening procedures were performed in accordance with the company's on-line protocol [accessed on-line Mar. 25, 2022 at reaction biology.com/assay-protocol-panqinase]. Inhibitory activity of 50% or greater at concentrations of 1 μM are highlighted for all five compounds tested.
as §2, §3

Another assay addresses T9, CLK1 (Homo sapiens, UniProt P49759).
T9 construct: purchased Reaction Biology Europe GmbH
In words: PanQinase kinase panel: CLK1. Type of assay: biochemical. Here is the method: as §1, §2, §3

The test system of a further assay is Ramos cell line. Description: Ramos cell line viability assay (CellTiter-Glo, 72 hr). Type of assay: cell-based. The conditions noted are these: Homo sapiens. Here is the method: Inhibition of non-Hodgkin lymphoma B-cell proliferation by compounds of the present invention was evaluated in a Ramos cell line. Ramos is a B lymphocyte cell line that was derived from a patient with Burkitt's Lymphoma.
Cell viability was analyzed with the CellTiter-Glo® Luminescent Cell Viability Assay Kit (G7572, Promega), according to the manufacturer's instruction. Cells were seeded into a 96-well/384-well plate and then incubated in 5% CO2 at 37° C. overnight. Compounds were added to the cells, with 9-10 dose points in duplicates in 3-fold dilution from a top concentration of 30 μM, and incubated in 5% CO2 at 37° C. for 72 hr. The 96-well/384-well plate was equilibrated at room temperature for 30 min. 50 μl/25 μl of CellTiter-Glo® Reagent was added to each well and mixed for 2 min on an orbital shaker to induce cell lysis. The 96-well/384-well plate was incubated at room temperature for 10 min to stabilize luminescent signal. Luminescence was detected on a PerkinElmer EnVision Multimode Plate Reader as relative luminescence units (RLU).

The target of the next assay is T10, ABL1 (Homo sapiens, UniProt P00519).
T10 construct: purchased Reaction Biology Europe GmbH
T10 sequence (P00519 whole entry): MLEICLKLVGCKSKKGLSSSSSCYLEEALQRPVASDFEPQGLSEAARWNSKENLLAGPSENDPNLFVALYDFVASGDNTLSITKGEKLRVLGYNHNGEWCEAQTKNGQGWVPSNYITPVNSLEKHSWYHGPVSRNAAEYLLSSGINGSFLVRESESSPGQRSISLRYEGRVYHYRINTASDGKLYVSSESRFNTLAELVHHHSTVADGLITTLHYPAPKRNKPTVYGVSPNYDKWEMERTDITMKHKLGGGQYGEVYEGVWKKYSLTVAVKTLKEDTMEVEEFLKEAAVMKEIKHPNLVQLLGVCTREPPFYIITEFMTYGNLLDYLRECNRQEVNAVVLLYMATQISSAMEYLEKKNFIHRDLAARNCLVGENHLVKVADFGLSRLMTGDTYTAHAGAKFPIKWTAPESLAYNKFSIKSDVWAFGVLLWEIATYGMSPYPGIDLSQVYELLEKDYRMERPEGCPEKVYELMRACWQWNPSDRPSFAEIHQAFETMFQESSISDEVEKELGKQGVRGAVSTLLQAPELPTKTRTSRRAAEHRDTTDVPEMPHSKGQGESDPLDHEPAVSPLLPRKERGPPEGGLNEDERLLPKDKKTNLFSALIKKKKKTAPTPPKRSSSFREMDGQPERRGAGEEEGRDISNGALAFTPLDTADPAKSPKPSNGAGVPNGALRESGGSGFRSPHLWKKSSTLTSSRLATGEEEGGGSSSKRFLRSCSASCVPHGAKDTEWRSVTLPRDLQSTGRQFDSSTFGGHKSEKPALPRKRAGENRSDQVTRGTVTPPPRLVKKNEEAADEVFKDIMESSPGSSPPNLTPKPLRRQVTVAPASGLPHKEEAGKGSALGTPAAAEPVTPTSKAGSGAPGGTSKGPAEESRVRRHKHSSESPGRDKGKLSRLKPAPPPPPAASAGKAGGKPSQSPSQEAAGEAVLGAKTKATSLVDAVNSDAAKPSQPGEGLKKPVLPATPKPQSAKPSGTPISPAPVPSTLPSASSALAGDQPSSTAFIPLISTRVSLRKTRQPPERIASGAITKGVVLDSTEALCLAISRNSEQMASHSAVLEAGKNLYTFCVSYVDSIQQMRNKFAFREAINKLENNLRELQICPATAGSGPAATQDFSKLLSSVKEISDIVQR
Description: PanQinase kinase panel: ABL1. The class given is biochemical. On the procedure:
as §1, §2, §3

[1] abbreviates: at 1 μM, read-out: inhibition of DDR2.
Setting [2] is: read-out: INHIBITORY EFFECT @ 1 uM: DDR2.
Setting [3] is: read-out: INHIBITORY EFFECT @ 1 uM: CDK13/CycK.
Where [4] appears, read: read-out: INHIBITORY EFFECT @ 1 uM: CLK1.
Where [5] appears, read: class, read-out: Ramos viability IC50.
[6] abbreviates: read-out: INHIBITORY EFFECT @ 1 uM: ABL1.

Like-named read-outs stand apart in the source and are kept apart here. Bounds are passed on as bounds.

T9 sequence (P49759 whole entry): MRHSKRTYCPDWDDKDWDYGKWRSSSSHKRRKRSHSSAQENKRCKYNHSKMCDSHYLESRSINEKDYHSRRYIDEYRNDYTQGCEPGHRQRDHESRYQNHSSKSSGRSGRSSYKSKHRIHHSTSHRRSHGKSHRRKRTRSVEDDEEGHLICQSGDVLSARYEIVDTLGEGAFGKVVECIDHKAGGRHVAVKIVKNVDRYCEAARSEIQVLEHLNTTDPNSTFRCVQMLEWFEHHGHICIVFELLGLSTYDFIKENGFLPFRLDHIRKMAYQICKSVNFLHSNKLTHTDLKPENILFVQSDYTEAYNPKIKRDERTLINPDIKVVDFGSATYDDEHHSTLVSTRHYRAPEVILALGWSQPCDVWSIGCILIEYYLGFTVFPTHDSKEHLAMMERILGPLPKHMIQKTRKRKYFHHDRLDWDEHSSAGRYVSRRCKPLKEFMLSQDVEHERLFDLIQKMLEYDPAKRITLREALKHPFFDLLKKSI
T8 sequence (Q14004 whole entry): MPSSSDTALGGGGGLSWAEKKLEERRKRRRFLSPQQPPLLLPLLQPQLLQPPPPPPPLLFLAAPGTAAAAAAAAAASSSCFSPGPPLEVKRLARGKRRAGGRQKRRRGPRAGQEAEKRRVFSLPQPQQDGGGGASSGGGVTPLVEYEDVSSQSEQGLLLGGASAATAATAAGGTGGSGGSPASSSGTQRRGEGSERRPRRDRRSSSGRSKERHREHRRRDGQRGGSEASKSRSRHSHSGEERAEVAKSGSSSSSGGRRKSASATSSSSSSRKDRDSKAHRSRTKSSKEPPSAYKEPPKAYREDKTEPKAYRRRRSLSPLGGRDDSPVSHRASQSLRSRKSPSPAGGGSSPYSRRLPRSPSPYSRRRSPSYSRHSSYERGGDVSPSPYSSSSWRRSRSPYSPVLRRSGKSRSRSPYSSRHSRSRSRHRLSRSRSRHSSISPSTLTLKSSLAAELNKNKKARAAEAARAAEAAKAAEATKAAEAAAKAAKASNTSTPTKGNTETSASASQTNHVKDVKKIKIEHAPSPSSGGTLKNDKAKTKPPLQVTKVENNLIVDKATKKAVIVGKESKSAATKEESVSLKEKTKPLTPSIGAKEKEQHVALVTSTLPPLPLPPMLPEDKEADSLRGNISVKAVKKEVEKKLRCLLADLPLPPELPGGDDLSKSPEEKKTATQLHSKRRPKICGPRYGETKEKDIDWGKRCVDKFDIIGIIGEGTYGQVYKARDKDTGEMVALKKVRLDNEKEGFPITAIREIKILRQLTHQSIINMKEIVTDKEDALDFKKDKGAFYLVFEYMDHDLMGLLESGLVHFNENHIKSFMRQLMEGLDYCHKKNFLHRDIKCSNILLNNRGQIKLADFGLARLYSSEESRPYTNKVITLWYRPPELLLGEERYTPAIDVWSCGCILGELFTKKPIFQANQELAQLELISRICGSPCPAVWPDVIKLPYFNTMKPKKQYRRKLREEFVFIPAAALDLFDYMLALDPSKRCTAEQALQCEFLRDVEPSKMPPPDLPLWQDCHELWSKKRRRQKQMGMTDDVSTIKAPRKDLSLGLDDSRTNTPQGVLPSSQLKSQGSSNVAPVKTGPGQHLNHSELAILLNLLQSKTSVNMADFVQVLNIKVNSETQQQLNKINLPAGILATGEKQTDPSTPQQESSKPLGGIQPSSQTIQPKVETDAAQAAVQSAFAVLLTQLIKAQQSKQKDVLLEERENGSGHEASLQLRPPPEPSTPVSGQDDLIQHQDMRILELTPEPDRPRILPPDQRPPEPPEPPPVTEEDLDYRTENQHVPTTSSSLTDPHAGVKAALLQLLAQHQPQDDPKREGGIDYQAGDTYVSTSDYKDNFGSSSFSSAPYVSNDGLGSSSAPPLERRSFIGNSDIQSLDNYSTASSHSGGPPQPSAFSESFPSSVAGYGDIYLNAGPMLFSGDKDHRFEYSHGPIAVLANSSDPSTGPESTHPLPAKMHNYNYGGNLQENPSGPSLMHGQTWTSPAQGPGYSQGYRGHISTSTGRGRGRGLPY
T8 sequence (O75909 whole entry partner): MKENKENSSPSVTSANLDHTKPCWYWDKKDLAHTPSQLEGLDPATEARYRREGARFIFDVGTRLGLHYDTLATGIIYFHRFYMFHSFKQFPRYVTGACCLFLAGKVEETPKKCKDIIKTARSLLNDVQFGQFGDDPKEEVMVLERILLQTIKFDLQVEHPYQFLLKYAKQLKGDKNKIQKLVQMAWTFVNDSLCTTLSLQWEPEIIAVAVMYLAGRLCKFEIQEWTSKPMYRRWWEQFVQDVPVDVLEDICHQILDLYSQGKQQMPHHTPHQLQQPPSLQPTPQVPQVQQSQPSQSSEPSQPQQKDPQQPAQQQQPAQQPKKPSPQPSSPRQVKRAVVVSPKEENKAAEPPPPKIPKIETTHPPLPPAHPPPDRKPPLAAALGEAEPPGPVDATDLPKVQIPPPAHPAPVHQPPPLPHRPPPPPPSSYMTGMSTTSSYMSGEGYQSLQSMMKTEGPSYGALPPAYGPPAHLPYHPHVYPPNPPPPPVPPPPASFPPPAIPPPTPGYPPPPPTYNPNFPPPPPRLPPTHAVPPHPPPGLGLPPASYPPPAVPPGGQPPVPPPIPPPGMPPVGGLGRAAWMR
T1 sequence (O75914 whole entry): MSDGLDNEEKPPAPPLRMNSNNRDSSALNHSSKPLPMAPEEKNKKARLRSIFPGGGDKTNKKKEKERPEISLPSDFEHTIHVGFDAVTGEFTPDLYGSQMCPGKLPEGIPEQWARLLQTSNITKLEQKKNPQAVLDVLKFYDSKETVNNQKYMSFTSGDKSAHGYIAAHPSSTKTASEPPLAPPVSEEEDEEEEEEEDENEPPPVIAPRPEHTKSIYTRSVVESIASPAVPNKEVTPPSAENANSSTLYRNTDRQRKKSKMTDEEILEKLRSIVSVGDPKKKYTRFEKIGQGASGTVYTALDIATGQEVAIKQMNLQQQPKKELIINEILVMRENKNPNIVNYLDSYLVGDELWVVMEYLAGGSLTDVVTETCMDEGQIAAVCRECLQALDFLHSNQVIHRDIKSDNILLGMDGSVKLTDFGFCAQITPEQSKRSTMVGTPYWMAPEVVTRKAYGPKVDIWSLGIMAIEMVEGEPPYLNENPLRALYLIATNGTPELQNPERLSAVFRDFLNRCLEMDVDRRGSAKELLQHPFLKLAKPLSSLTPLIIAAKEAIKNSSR
T3 sequence (P07948 whole entry): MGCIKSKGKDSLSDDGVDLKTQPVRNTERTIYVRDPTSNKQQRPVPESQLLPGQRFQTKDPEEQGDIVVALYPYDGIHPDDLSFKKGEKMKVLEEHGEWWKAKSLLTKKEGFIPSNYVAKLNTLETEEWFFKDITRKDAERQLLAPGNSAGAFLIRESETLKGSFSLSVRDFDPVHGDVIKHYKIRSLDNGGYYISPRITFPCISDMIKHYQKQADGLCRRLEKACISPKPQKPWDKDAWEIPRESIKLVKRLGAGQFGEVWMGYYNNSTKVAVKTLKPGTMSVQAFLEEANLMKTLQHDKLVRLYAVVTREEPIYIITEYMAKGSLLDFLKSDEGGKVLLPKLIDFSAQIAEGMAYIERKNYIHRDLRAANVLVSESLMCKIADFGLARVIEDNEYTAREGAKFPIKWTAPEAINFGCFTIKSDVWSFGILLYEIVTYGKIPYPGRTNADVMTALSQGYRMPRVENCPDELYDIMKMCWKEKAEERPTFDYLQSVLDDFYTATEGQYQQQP

For the compound `O=C(c1ccc(Oc2ccccc2)cc1Cl)c1c[nH]c2ncnc(N[C@@H]3CC[C@@H](CO)OC3)c12` [ARQ-531, (2-chloro-4-phenoxyphenyl) (4-(((3R,6S)-6-(hydroxymethyl)tetrahydro-2H-pyran-3-yl)amino)-7H-pyrrolo[2,3-d]pyrimidin-5-yl) methanone], the inhibition at 1 µM is 90 to 100% on PAK3; 50 to 69% at PKN3; 70 to 89% at LYN; 70 to 89% at INSR; 90 to 100% at MKK6 SDTD; below 50% at PDGFRbeta. Further, the inhibition at 1 µM at DDR2 (setting [1]) was at least 50%; on DDR2 (setting [2]) it was 50 to 69%.
What is called IC50 is the concentration at which inhibition is half-maximal. As to `Cc1cccnc1[C@H]1CCC[C@@H](c2ncccc2C)N1CCN1CCN(C(=O)c2ccc(-c3cc4c(-c5cccc(NC(=O)c6ccccc6)c5C)ncnc4[nH]3)cc2)CC1` [Compound I-10, N-(3-(6-(4-(4-(2-((2R,6S)-2,6-bis(3-methylpyridin-2-yl)piperidin-1-yl)ethyl)piperazine-1-carbonyl)phenyl)-7H-pyrrolo[2,3-d]pyrimidin-4-yl)-2-methylphenyl)benzamide], the inhibition at 1 µM at PAK3 is below 50%; at PKN3, 50 to 69%; at LYN, below 50%; on CDK13/CycK (at 1 μM, read-out: inhibition of CDK13/CycK), 50 to 89%; on CDK13/CycK (setting [3]), 50 to 69%; on INSR it was below 50%. For the same compound, the inhibition at 1 µM was below 50% at MKK6 SDTD; 50 to 89% on CLK1 (at 1 μM, read-out: inhibition of CLK1); 50 to 69% at CLK1 (setting [4]); below 50% at PDGFRbeta; 50 to 89% on DDR2 (setting [1]); 70 to 89% at DDR2 (setting [2]). For the same compound, the inhibition at 1 µM lay within 50 to 89% at ABL1 (at 1 μM, read-out: inhibition of ABL1) and 70 to 89% on ABL1 (setting [6]). In addition, the figures for the IC50 in the assay on Ramos cell line (setting [5]) and in the assay on Ramos cell line (read-out: IC50) were 2000 to 4000 nM and 2670 nM, respectively.
For the compound `Cc1cccnc1[C@H]1CCC[C@@H](c2ncccc2C)N1CCCCNC(=O)[C@@H]1CC[C@@H](Nc2ncnc3[nH]cc(C(=O)c4ccc(Oc5ccccc5)cc4Cl)c23)CO1` [Compound I-16], the figures for the IC50 in the assay on Ramos cell line (setting [5]) and in the assay on Ramos cell line (read-out: IC50) were 1000 to 1500 nM and 1480 nM, respectively.
As for `Cc1cccnc1[C@H]1CCC[C@@H](c2ncccc2C)N1CCCCNC(=O)OC[C@@H]1CC[C@@H](Nc2ncnc3[nH]cc(C(=O)c4ccc(Oc5ccccc5)cc4Cl)c23)CO1` [Compound I-18], the IC50 was 1000 to 1500 nM in the assay with Ramos cell line (setting [5]) and 1330 nM in the assay with Ramos cell line (read-out: IC50).
In the case of `COc1ccc(F)cc1C(=O)NCc1ccc(-c2nn([C@@H](C)C(F)(F)F)c(N)c2C(N)=O)cc1` [LOXO-305, pirtobrutinib], the inhibition at 1 µM on PAK3, on PKN3, at LYN, on CDK13/CycK (setting [3]), on INSR and at MKK6 SDTD was below 50% throughout. For the same compound, the inhibition at 1 µM at CLK1 (setting [4]), on PDGFRbeta, at DDR2 (setting [2]) and on ABL1 (setting [6]) was below 50% each time.
For the compound `C=CC(=O)N1CCC([C@@H]2CCNc3c(C(N)=O)c(-c4ccc(Oc5ccccc5)cc4)nn32)CC1` [Zanubrutinib, (7S)-2-(4-phenoxyphenyl)-7-(1-prop-2-enoylpiperidin-4-yl)-4,5,6,7-tetrahydropyrazolo[1,5-a]pyrimidine-3-carboxamide], the inhibition at 1 µM at PAK3, on PKN3, on CDK13/CycK (setting [3]), at INSR, at MKK6 SDTD and at CLK1 (setting [4]) was below 50% throughout. The inhibition at 1 µM on PDGFRbeta, on DDR2 (setting [2]) and at ABL1 (setting [6]) was below 50% throughout. The IC50 with Ramos cell line (setting [5]) is at least 4000 nM; with Ramos cell line (read-out: IC50), 11900 nM.

Values taken from patent publication US20250326753A1, “DUAL CXCR4-BTK INHIBITORS” (X4 Pharmaceuticals, Inc., priority 2022, published 2025).
